From patent US8343924B2, “Composition for improving brain function and method for improving brain function” (Calpis Co., Ltd., priority 2009, dated 2013)

Assays:
[1] = tested on: scopolamine-induced amnesia; assay: Y-shaped maze test, prophylactic activity against scopolamine-induced amnesia; format: in vivo; conditions: male ddY mice, scopolamine 1 mg/kg s.c. 30 min before test
Source text: The effect in improving brain function of the composition of the present invention, or the peptide the peptide Pro-Val-Arg-Gly-Pro-Phe-Pro-Ile-Ile-Val (SEQ ID NO: 2) or the peptide Val-Arg-Gly-Pro-Phe-Pro-Ile-Ile-Val (SEQ ID NO: 1) may be confirmed using a system based on an evaluation system for therapeutic drugs against Alzheimer's disease, the system using a Y-shaped maze test, for example. Specifically, a muscarinic receptor antagonist, such as scopolamine, may be used on a rat or a mouse so as to cause a hypofunction of the cholinergic neurons. Then, either the rat or the mouse may be administered with a drug, which induces amnesia by causing brain dysfunction, by itself, or the composition of the present invention, the peptide Pro-Val-Arg-Gly-Pro-Phe-Pro-Ile-Ile-Val (SEQ ID NO: 2) or the peptide Val-Arg-Gly-Pro-Phe-Pro-Ile-Ile-Val (SEQ ID NO: 1) together with such a drug, or the rat or the mouse may be administered, prior to the administration of such a drug, with the composition of the present invention, the peptide Pro-Val-Arg-Gly-Pro-Phe-Pro-Ile-Ile-Val (SEQ ID NO: 2) or the peptide Val-Arg-Gly-Pro-Phe-Pro-Ile-Ile-Val (SEQ ID NO: 1). Then, the mouse or the rat may be subjected to a test using a Y-shaped maze so that the prophylactic actions against amnesia of the composition of the present invention may be confirmed by using the percentage of change in spontaneous alternation behavior to different arms and the total number of entries into the maze as indicators.
Male mice (n=15 to 30) of the ddY strain (approximately 7-week old) were used, and they took food and water ad lib. Test substances used were 3 nmol/kg weight (3 μg/kg weight) and 30 nmol/kg weight (30 μg/kg weight) of Pro-Val-Arg-Gly-Pro-Phe-Pro-Ile-Ile-Val (SEO ID NO: 2). The test substances were administered to the mice once orally 60 minutes before the execution of a Y-shaped maze test for evaluation of spontaneous alternation behavior. […] The sequence of the arms each of the mice entered was recorded. The number of entries by each of the mice for each of the arms during the measurement time was counted to be the total number of entries. […] The percentage of spontaneous alternation behavior was calculated by dividing the number of spontaneous alternation behavior by a number obtained by subtracting 2 from the total number of entries, and multiplying a resultant number by 100. […] The measured values were expressed in the form of mean±standard error for each group. A significant difference between the control group and the scopolamine control group was calculated using Student's t-test. Further, a significant difference between the scopolamine control group and the PVRGPFPIIV (SEQ ID NO: 2)-administered group was calculated using Dunnett's multiple comparison test after one-way analysis of variance. […]

[2] = tested on: human T2R receptor; conditions: functions as a bitter substance; cited from earlier work
[3] = Example 2, 3 nmol/kg weight (3 μg/kg) once orally 60 min before test

Sequence	prophylactic activity against amnesia (percentage of spontaneous alternation behavior) ([1]; Example 1, 3 nmol/kg weight to 30 nmol/kg weight (3 μg/kg to 30 μg/kg) once orally 60 min before test)	prophylactic activity against amnesia (percentage of spontaneous alternation behavior) [1, 3]	binding to human T2R receptor (receptor for bitter substances) [2]
PVRGPFPIIV (Synthetic functional peptide) [Pro-Val-Arg-Gly-Pro-Phe-Pro-Ile-Ile-Val]	had a prophylactic activity against amnesia	had a prophylactic activity against amnesia	binds to a human T2R receptor
RGPFPIIV (Synthetic comparative example peptide) [Arg-Gly-Pro-Phe-Pro-Ile-Ile-Val]	–	did not show any activity	–
VRGPFPIIV (Synthetic functional peptide) [Val-Arg-Gly-Pro-Phe-Pro-Ile-Ile-Val]	–	had a prophylactic activity against amnesia	–
